Entries after “also recorded” stand apart in the source; their conditions may differ.
Assays:
[1] = Phase 1 single ascending dose study of intranasal 5-MeO-DMT HCl in healthy subjects; type: in vivo; settings: human plasma
Excerpt: (§1) The applicant has funded double-blind, randomised, Phase 1, single ascending dose studies to evaluate the safety, tolerability and pharmacokinetic profile of intranasal 5-MeO-DMT hydrochloride and intranasal 5-MeO-DMT benzoate in healthy subjects. […] It is desirable that a compound for use in treatment has dose-proportional pharmacokinetics, for example, to facilitate dose and dose regimen adjustment in patients. In an embodiment, there is provided a salt of 5-MeO-DMT with dose-proportional pharmacokinetics, optionally for use in the methods disclosed herein. In an embodiment, the salt of 5-MeO-DMT with dose-proportional pharmacokinetics is the benzoate or HBr salt, optionally the benzoate salt. A double-blind, randomised, Phase 1, single ascending dose study to evaluate the safety, tolerability and pharmacokinetic profile of a liquid intranasal 5-MeO-DMT HCl (5-MeO-DMT HCl, HPMC, water for injection (WFI) and a sodium hydroxide solution to adjust pH) pharmaceutical composition/formulation in healthy subjects was performed.

[2] = physical stability / hygroscopicity of salts and formulations
[3] = solid state by XRPD and DSC; type: physicochemical; settings: XRPD and/or DSC, after spray drying or lyophilisation
Description: Unless otherwise stated herein all X-ray powder diffractograms (XRPD) were generated using an X-ray wavelength of 1.5406 Å; all modulated differential scanning calorimetry (DSC) thermograms were generated using a 2 °C/min heating rate.

[4] = thermal decomposition properties of salt forms (TGA); type: physicochemical
Excerpt: The thermal decomposition properties of a range of salt forms of 5-MeO-DMT has been investigated and is summarised in the report below: […]

[5] = type: in vivo, human (healthy subjects)
Excerpt: as §1
A double-blind, randomised, Phase 1, single ascending dose study to evaluate the safety, tolerability and pharmacokinetic profile of intranasal 5-MeO-DMT benzoate in healthy subjects was performed.

[6] = dissolution rate (UV-fibre optic dissolution apparatus, simulated nasal fluid); type: physicochemical
Description: The dissolution rate of SDD was determined using a method comprising the use of a UV-fibre optic-based dissolution apparatus (one such suitable device is the Rainbow® Dynamic Dissolution Monitor by Pion Inc) and simulated nasal fluid. The simulated nasal fluid comprises 7.45 g/L NaCl, 1.29 g/L KCl, 0.32 g/L CaCl2)×2H2O and deionised water.

COc1ccc2[nH]cc(CCN(C)C)c2c1.Cl [5-MeO-DMT HCl]
mean concentration profiles ([1]; 5 mg, 8 mg, 10 mg, 11 mg and 14 mg): substantially similar | dose-proportional pharmacokinetics ([1]; liquid intranasal HCl formulation, 5, 8, 10, 11 and 14 mg): does not display dose-proportional pharmacokinetics | stability profile, in words [2]: issues relating to stability, discoloration and a reduction in desirable pharmacokinetic properties

COc1ccc2[nH]cc(CCN(C)C)c2c1.O=C(O)c1ccccc1 [5-MeO-DMT benzoate]
solid state of the dispersion produced [3]: amorphous dispersion with no sign of the crystalline benzoate salt | mass loss [4]: full mass loss | temperature at which decomposition starts [4]: ~220 °C | physical / state stability, in words [2]: storage at 2-8° C., and protection from moisture, prevents recrystallisation and aggregation; also recorded: stable crystalline spray dried dispersion particle with no respirable API fines or significant aggregation | stability profile, in words [2]: good stability profile | mean Cmax ([5]; intranasal, 12 mg dosage, human plasma): 29 ng/mL | mean Tmax ([5]; intranasal, human plasma): 9.5 min | dissolution rate / profile, in words [6]: almost instantaneous dissolution rate; also recorded: a reduced dissolution rate as compared to the amorphous form of 5-MeO-DMT salts

Br.COc1ccc2[nH]cc(CCN(C)C)c2c1 [5-MeO-DMT hydrobromide]
temperature at which gross decomposition starts [4]: Melt 149 °C, gross decomp starts 220 °C | physical / state stability, in words [2]: stable amorphous dispersion without the need for any additional drying step post spray drying; also recorded: state-stable when stored at above the temperature range 2-8 °C

C1=Cc2cccc(OC[C@H]3CNCCO3)c2C1.O=S(=O)(O)c1ccccc1 [Benzenesulfonate]
temperature at which gross decomposition starts [4]: Melt 76 °C, gross decomp starts 280 °C

CN(C)CCc1c[nH]c2ccc(O)cc12 [Bufotenin]
detection of O-demethylated metabolite (Bufotenin) ([5]; 6 mg dose level of intranasal 5-MeO-DMT benzoate, after the 16 minutes time point): only detected at very low levels

O=C(O)CCC(=O)C(=O)O [Ketoglutarate]
temperature at which gross decomposition starts [4]: Melt 85 °C, gross decomp starts 170 °C

O=C(O)CC(O)C(=O)O (centres unmarked) [Malate]
temperature at which gross decomposition starts [4]: Melt 100 °C, gross decomp starts 250 °C

O=C(O)C(O)C(O)C(=O)O (centres unmarked) [Tartrate]
decomposition temperature [4]: Melt ~140 °C, decomp ~200 °C

Fumarate
decomposition temperature [4]: Decomp around 200 °C

Glycolate
temperature at which gross decomposition starts [4]: Melt 95 °C, gross decomp starts 170 °C

Oxalate
mass loss [4]: Melts 176 °C, full mass loss

Phosphate
decomposition temperature [4]: Decomp around 200 °C

Tosylate
temperature at which gross decomposition starts [4]: Melt 110 °C, gross decomp starts 280 °C

Source: patent publication US20260325489A1, “PHARMACEUTICAL COMPOSITIONS COMPRISING 5-METHOXY-N,N-DIMETHYLTRYPTAMINE (5-MEO-DMT)” (Beckley Psytech Limited, priority 2023, published 2026)
